# According to patent US8236826B2, “Diarylether derivatives as antitumor agents” (Otsuka Pharmaceutical Co., Ltd., priority 2005, dated 2012):
# Structures can show the parent of a compound that is named as a salt.
row,SMILES,melting point
1,CC(=O)N(CC(=O)N1CCN(Cc2ccc3c(c2)OCO3)CC1)c1ccc(Oc2ccc(NC(=O)c3ccc(Cl)c(Cl)c3)cn2)c(F)c1 [Example 730],233 to 235 °C
2,CCN(CC(=O)N1CCN(Cc2ccc3c(c2)OCO3)CC1)c1ccc(Oc2ccc(NC(=O)c3ccc(C(F)(F)F)cc3)cn2)c(F)c1 [Example 775],170 to 172 °C
3,COc1cc(N(C)CC(=O)N2CCN(Cc3ccoc3)CC2)ccc1Oc1ccc(NC(=O)c2ccc(C(F)(F)F)cc2)cn1 [Example 785],160 to 164 °C
4,O=C(Nc1ccc(Oc2ccc(CCC(=O)N3CCN(c4cccnc4)CC3)cc2)cc1)c1ccc(Cl)c(Cl)c1 [Example 466],153 to 155 °C
5,"Br.CN(CC(=O)N1CCN(Cc2ccc3c(c2)OCO3)CC1)c1cc(F)c(Oc2ccc(C(=O)Nc3ccc(C(F)(F)F)cc3)cn2)cc1F [Example 1037, 6-(4-{[2-(4-Piperonylpiperazin-1-yl)-2-oxoethyl]methylamino}-2,5-difluorophenoxy)-N-(4-trifluoromethylphenyl)nicotinamide hydrobromide]",224.5 to 226 °C
6,COc1ccc(CN2CCCN(c3ccc(Oc4ccc(NC(=O)c5ccc(Cl)c(Cl)c5)cn4)c(C)c3)C2=O)cc1OC [Example 1187],117 to 118 °C
7,Cc1cc(N2CCCN(Cc3ccc4c(c3)OCO4)C2=O)ccc1Oc1ccc(NC(=O)c2ccc(C(F)(F)F)cc2)cn1 [Example 1183],165 to 166 °C
8,Cc1cc(N(C)CC(=O)N2CCN(Cc3ccoc3)CC2)ccc1Oc1ccc(NC(=O)c2ccc(C(F)(F)F)cc2)cn1 (as salt: hydrochloride) [Example 792],158.5 to 161 °C
9,COc1ccc(CN2CCCN(c3ccc(Oc4ccc(NC(=O)c5ccc(C(F)(F)F)cc5)cn4)c(C)c3)C2=O)cc1OC [Example 1185],155 to 157 °C
10,O=C(Nc1ccc(Oc2ccc(C(=O)N3CCN(c4ccccn4)CC3)cc2)nc1)c1ccc(C(F)(F)F)cc1 [Example 176],222 to 224 °C
11,O=C(Nc1ccc(Oc2ccc(N3CCN(Cc4ccccc4)C3=O)cc2)nc1)c1ccc(C(F)(F)F)cc1 [Example 1181],203 to 204 °C
12,CCN(CC(=O)N1CCN(Cc2ccc3c(c2)OCO3)CC1)c1ccc(Oc2ccc(NC(=O)c3ccc(Cl)c(Cl)c3)cn2)c(F)c1 [Example 728],149 to 151 °C
13,CN(CC(=O)N1CCN(Cc2ccc3c(c2)OCO3)CC1)c1ccc(Oc2ccc(NC(=O)c3ccc(Cl)c(Cl)c3)cn2)c(F)c1 [Example 729],199 to 201 °C
14,CC(=O)N(CC(=O)N1CCN(Cc2ccccc2)CC1)c1ccc(Oc2ccc(NC(=O)c3ccc(C(F)(F)F)cc3)cn2)cc1 [Example 771],161 to 162 °C
15,CC(C)(C)OC(=O)N1CCN(C(=O)CCc2ccc(Oc3ccc(NC(=O)c4ccc(Cl)c(Cl)c4)cc3F)cc2)CC1 [Example 464],155 to 157 °C
16,Cc1cc(N2CCCN(CC(=O)N3CCN(Cc4ccc5c(c4)OCO5)CC3)C2=O)ccc1Oc1ccc(NC(=O)c2ccc(C(F)(F)F)cc2)cn1 [Example 1186],182 to 183.5 °C
17,Cc1cc(N2CCCN(Cc3ccc4c(c3)OCO4)C2=O)ccc1Oc1ccc(NC(=O)c2ccc(Cl)c(Cl)c2)cn1 [Example 1184],122 to 124 °C
18,CC(=O)N(CC(=O)N1CCN(Cc2ccc3c(c2)OCO3)CC1)c1ccc(Oc2ccc(NC(=O)c3ccc(Cl)c(Cl)c3)cn2)c(C)c1 [Example 725],216 to 217 °C

# Continued, values first:
row,melting point,SMILES
1,171 to 173 °C,O=C(Nc1ccc(Oc2ccc(N3CCN(C(=O)COc4ccccc4)CC3)cc2)cc1)c1ccc(Cl)c(Cl)c1 [Example 2052]
2,183 to 185 °C (dec.),Cc1cc(N(C)CC(=O)N2CCN(Cc3ccc4c(c3)OCO4)CC2)ccc1Oc1ccc(NC(=O)c2ccc(Cl)c(Cl)c2)cn1 (as salt: hydrochloride) [Example 1512]
3,102 to 105 °C,CCN(CC(=O)N1CCN(Cc2ccccc2)CC1)c1ccc(Oc2ccc(NC(=O)c3ccc(Cl)c(Cl)c3)cn2)c(C)c1 [Example 1514]
4,110 to 111 °C,Cc1cc(N(C)CC(=O)N2CCN(Cc3ccccc3)CC2)ccc1Oc1ccc(NC(=O)c2ccc(C(F)(F)F)cc2)cn1 [Example 1515]
5,177.8 to 180.1 °C,"CCN(CC(=O)N1CCN(Cc2ccc3c(c2)OCO3)CC1)c1ccc(Oc2ccc(NS(=O)(=O)c3ccc(C(F)(F)F)cc3)cn2)c(F)c1 [Example 2712, N-[6-(4-{[2-(4-piperonylpiperazin-1-yl)-2-oxoethyl]ethylamino}-2-fluorophenoxy)pyridin-3-yl]-4-trifluoromethylbenzenesulfonamide]"
6,160 to 161 °C,CCOC(=O)c1ccc(N2CCCN(c3ccc(Oc4ccc(NC(=O)c5ccc(C(F)(F)F)cc5)cn4)c(C)c3)C2=O)cc1 [Example 1188]
7,157 to 160 °C,CN(C(=O)CN1CCOCC1)C1CCN(c2ccc(Oc3ccc(NC(=O)c4ccc(Cl)c(Cl)c4)cc3)cc2)CC1 [Example 2572]
8,185.6 to 187 °C,"CN(CC(=O)N1CCN(Cc2ccc3c(c2)OCO3)CC1)c1ccc(Oc2ccc(NS(=O)(=O)c3ccc(Cl)c(Cl)c3)cn2)c(F)c1 [Example 1615, 3,4-dichloro-N-[6-(2-fluoro-4-{methyl[2-oxo-2-(4-piperonylpiperazin-1-yl)ethyl]amino}phenoxy)pyridin-3-yl]benzenesulfonamide]"
9,156 to 158 °C,"Cc1cc(N2CCC(CC(=O)N3CCN(Cc4ccc5c(c4)OCO5)CC3)CC2)ccc1Oc1ccc(NS(=O)(=O)c2ccc(C(F)(F)F)cc2)cn1 [Example 2703, N-[6-(4-{4-[2-(4-piperonylpiperazin-1-yl)-2-oxoethyl]piperidin-1-yl}-2-methylphenoxy)pyridin-3-yl]-4-trifluoromethylbenzenesulfonamide]"
10,195 to 197 °C,O=C(Nc1ccc(Oc2ccc(C3=CCN(C(=O)CN4CCOCC4)CC3)cc2)cc1)c1ccc(Cl)c(Cl)c1 [Example 2565]
11,133 to 135 °C,Cc1cc(N(C)CC(=O)N2CCN(C(=O)c3ccc4c(c3)OCO4)CC2)ccc1Oc1ccc(NC(=O)c2ccc(Cl)c(Cl)c2)cn1 [Example 2054]
12,177 to 178 °C,O=C(Nc1ccc(Oc2ccc(N3CCN(C(=O)CN4CCOCC4)CC3)cc2)cc1)c1ccc(Cl)c(Cl)c1 [Example 2559]
13,165 to 167 °C,CCN(CC(=O)N1CCN(Cc2ccccc2)CC1)c1ccc(Oc2ccc(NC(=O)c3ccc(C(F)(F)F)cc3)cn2)c(C)c1 (as salt: maleate) [Example 1513]
